For 34 compounds, viability results are on record in ChEMBL document CHEMBL4765320, “Identification and optimization of piperine analogues as neuroprotective agents for the treatment of Parkinson's disease via the activation of Nrf2/keap1 pathway” (Eur J Med Chem, 2020).

This test deals with PC-12. In words: Neuroprotective activity against H2O2-induced cytotoxicity in rat PC-12 cells assessed as cell viability at 12.5 uM pretreated for 24 hrs followed by H2O2 challenge and measured after 24 hrs by MTT assay (reference value: 52.81 +/- 6%). The test is classed as functional. The conditions noted are these: time 48 hrs, read-out: Activity. A general note: Tetrazolium dyes change colour on reduction, which living cells bring about.
`O=C(/C=C/C=C/c1ccc(N2CCOCC2)cc1)N1CCCCC1`: the viability at 12.5 µM came out at 20.2%.
With `O=C(/C=C/c1cccs1)N1CCCCC1`, the viability at 12.5 µM is 50.4%.
Consider `CCN(CC)C(=O)/C=C/C=C/c1ccc(O)cc1`, for which the viability at 12.5 µM turned out to be 67.3%.
Turning to `COc1cccc(/C=C/C=C/C(=O)N2CCCCC2)c1`, the viability at 12.5 µM came out at 58.1%.
The figure for `CCN(CC)C(=O)/C=C/C=C/c1ccc2c(c1)OCO2` is 31.4%.
The figure for `CCN(CC)C(=O)/C=C/c1cccs1` is 54.3%; for `CCNC(=O)/C=C/c1cccs1` it is 56.5%; for `COc1ccccc1/C=C/C(=O)N1CCCCC1` it is 81.3%.
With `CCNC(=O)/C=C/c1ccccc1OC`, the viability at 12.5 µM is 68.5%.
Take `O=C(/C=C/c1ccc(N2CCCC2)cc1)N1CCCCC1`: the viability at 12.5 µM worked out at 30.6%.
The figure for `CC(C)(C)c1cc(O)ccc1O` [E319] is 70.4%.
With `O=C(/C=C/C=C/c1ccc2c(c1)OCO2)N1CCCCC1` [PIPERINE], the viability at 12.5 µM was found to be 55.7%.
In the case of `O=C(/C=C/c1ccc(N2CCNCC2)cc1)N1CCCCC1` it was 72.6%; in that of `CCN(CC)C(=O)/C=C/C=C/c1ccccc1OC`, 80.7%; in that of `O=C(/C=C/C=C/c1ccc(N2CCCCC2)cc1)N1CCCCC1`, 18.9%.
On to `CCN(CC)C(=O)/C=C/c1ccc(N2CCCC2)cc1`, for which the viability at 12.5 µM was 26.1%.
For the compound `O=C(/C=C/c1ccc2c(c1)OCO2)N1CCCCC1` [ILEPCIMIDE], the viability at 12.5 µM stood at 77%.
Take `CCNC(=O)/C=C/c1ccc(N2CCNCC2)cc1`: the viability at 12.5 µM was 42.7%.
As to `O=C(/C=C/C=C/c1ccco1)N1CCCCC1`, the viability at 12.5 µM came to 33.3%.
On to `CCN(CC)C(=O)/C=C/c1ccccc1OC`, for which the viability at 12.5 µM was found to be 78.2%.
As for `CCN(CC)C(=O)/C=C/c1ccc(N2CCNCC2)cc1`, the viability at 12.5 µM was 69.1%.
As for `CCNC(=O)/C=C/c1ccc2c(c1)OCO2`, the viability at 12.5 µM came out at 69.7%.
In the case of `O=C(/C=C/C=C/c1ccc(N2CCCC2)cc1)N1CCCCC1` it was 37.2%; in that of `O=C(/C=C/C=C/c1ccccc1O)N1CCCCC1`, 68.8%.
Take `CCNC(=O)/C=C/C=C/c1ccc2c(c1)OCO2`: the viability at 12.5 µM was found to be 22.3%.
In the case of `O=C(/C=C/C=C/c1ccc(O)cc1)N1CCCCC1` it was 48.4%; in that of `CCNC(=O)/C=C/C=C/c1ccccc1OC`, 74.6%.
`COc1ccc(/C=C/C=C/C(=O)N2CCCCC2)cc1`: the viability at 12.5 µM turned out to be 26.5%.
As to `CCNC(=O)/C=C/C=C/c1ccc(O)cc1`, the viability at 12.5 µM worked out at 69.1%.
As to `CCN(CC)C(=O)/C=C/C=C/c1cccn1C`, the viability at 12.5 µM was found to be 67.8%.
For `O=C(/C=C/C=C/c1ccc(-c2ccccc2)cc1)N1CCCCC1`, the viability at 12.5 µM came to 15.2%.
For the compound `O=C(/C=C/C=C/c1cccs1)N1CCCCC1`, the viability at 12.5 µM is 57.9%.
Take `O=C(/C=C/C=C/c1cccc(O)c1)N1CCCCC1`: the viability at 12.5 µM was determined as 75.7%.
With `CCN(CC)C(=O)/C=C/c1ccc2c(c1)OCO2`, the viability at 12.5 µM turned out to be 71.7%.
